Assay results from ChEMBL document CHEMBL4177750, “Imidazopyrazinones (IPYs): Non-Quinolone Bacterial Topoisomerase Inhibitors Showing Partial Cross-Resistance with Quinolones” (J Med Chem, 2018).
pIC50: −log10 of the molar value. Values after ≈ are worked out from the molar mass of the structure shown. Active and inactive are the calls of the source. No cut-off for these calls is given here.

What was measured:
Pseudomonas aeruginosa [1] = assay: Antibacterial activity against Pseudomonas aeruginosa PAO750 harboring mexAB-oprM/mexCD-oprJ/mexEF-oprN/mexXY/opmH/mexJK/pscC deletion mutant after 20 to 22 hrs; assay type: functional
Escherichia coli [2] = assay: Antibacterial activity against tolC-deficient Escherichia coli K-12 MG1655 after 20 to 22 hrs; assay type: functional; conditions: K-12 substr. MG1655
Pseudomonas aeruginosa [3] = assay: Antibacterial activity against Pseudomonas aeruginosa PAO1 after 20 to 22 hrs; assay type: functional
Escherichia coli [4] = assay: Antibacterial activity against ESBL producing Escherichia coli ATCC 35218 after 20 to 22 hrs; assay type: functional
Escherichia coli [5] = assay: Antibacterial activity against hyperpermeable Escherichia coli D22 harboring LpxC mutant after 20 to 22 hrs
Escherichia coli [6] = assay: Antibacterial activity against Escherichia coli K-12 MG1655 after 20 to 22 hrs; conditions: K-12 substr. MG1655
Staphylococcus aureus [7] = assay: Antibacterial activity against methicillin-resistant Staphylococcus aureus ATCC 33592 after 20 to 22 hrs; assay type: functional
Escherichia coli [8] = assay: Antibacterial activity against tolC-deficient fluoroquinolones-resistant Escherichia coli W4753 clinical isolate harboring DNA gyrase S83L/D87N/ParC S80I/ParE S458A mutant after 20 to 22 hrs
Escherichia coli [9] = assay: Antibacterial activity against tolC-deficient fluoroquinolones-sensitive Escherichia coli JC7623 clinical isolate harboring wild type DNA gyrase after 20 to 22 hrs
[10] = Cytotoxicity against human HepG2 cells assessed as decrease in cell viability after 40 hrs by Celltiter Glo assay
Staphylococcus aureus [11] = assay: Ratio of MIC for methicillin-resistant Staphylococcus aureus ATCC 33592 in presence of 50% calf fetal serum to MIC for methicillin-resistant Staphylococcus aureus ATCC 33592 in absence of 50% calf fetal serum; assay type: functional
[12] = Metabolic stability in mouse liver microsomes; assay type: ADME, microsome
hERG (KCNH2) = hERG (KCNH2) (Homo sapiens, UniProt Q12809); assay: Inhibition of human ERG transfected in CHO cells at 10 uM by patch clamp method relative to control; assay type: cell-based; conditions: CHO cells transfected with human ERG
Chain of hERG (KCNH2) (Q12809 whole entry): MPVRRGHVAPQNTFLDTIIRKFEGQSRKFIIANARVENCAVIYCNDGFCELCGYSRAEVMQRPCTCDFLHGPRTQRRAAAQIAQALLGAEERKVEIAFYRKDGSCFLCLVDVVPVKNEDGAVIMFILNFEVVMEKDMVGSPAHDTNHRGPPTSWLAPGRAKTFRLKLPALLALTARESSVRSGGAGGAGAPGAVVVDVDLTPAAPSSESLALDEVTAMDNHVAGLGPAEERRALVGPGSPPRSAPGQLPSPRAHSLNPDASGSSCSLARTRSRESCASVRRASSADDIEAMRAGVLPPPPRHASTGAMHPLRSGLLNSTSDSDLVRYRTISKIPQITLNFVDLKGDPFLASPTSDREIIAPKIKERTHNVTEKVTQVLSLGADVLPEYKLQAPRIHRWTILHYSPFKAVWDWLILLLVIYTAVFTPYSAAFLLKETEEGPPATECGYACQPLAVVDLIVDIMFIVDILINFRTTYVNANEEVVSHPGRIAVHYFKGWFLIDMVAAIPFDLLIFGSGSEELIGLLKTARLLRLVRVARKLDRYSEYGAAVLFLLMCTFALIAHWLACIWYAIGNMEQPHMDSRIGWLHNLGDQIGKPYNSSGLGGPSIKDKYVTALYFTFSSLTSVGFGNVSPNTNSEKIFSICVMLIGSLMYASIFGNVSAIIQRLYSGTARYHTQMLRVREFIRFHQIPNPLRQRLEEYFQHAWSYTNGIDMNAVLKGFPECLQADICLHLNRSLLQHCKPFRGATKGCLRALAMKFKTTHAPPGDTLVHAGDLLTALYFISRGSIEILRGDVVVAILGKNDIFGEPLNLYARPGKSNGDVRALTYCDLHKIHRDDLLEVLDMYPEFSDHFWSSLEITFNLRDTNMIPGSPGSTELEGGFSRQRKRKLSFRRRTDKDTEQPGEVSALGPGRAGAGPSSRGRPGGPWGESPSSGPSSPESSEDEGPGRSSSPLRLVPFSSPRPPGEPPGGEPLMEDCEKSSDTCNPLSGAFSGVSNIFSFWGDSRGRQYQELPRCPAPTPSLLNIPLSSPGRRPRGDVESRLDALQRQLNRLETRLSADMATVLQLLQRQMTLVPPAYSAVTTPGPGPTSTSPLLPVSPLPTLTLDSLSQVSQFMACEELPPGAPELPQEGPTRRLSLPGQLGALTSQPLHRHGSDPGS

[13] = Drug degradation in DMSO solution in presence of mercaptoethanol measured within 1 hr; assay type: physicochemical; conditions: DMSO solution with mercaptoethanol; read-out: Drug degradation
Staphylococcus aureus [14] = assay: Ratio of MIC for methicillin-resistant Staphylococcus aureus ATCC 33592 in presence of 50% mouse serum to MIC for methicillin-resistant Staphylococcus aureus ATCC 33592 in absence of 50% mouse serum; assay type: functional
[15] = Chemical stability in pH 7.4 buffer solution; assay type: physicochemical
[16] = Solubility of the compound in water; assay type: physicochemical; conditions: buffer
[17] = Permeability across human Caco2 cells; assay type: ADME, cell-based; conditions: Caco-2
[18] = Drug degradation in DMSO solution in presence of glutathione measured within 1 hr; assay type: physicochemical; conditions: DMSO solution with glutathione; read-out: Drug degradation
[19] = Metabolic stability in human liver microsomes; assay type: ADME, microsome
DNA gyrase = DNA gyrase (Escherichia coli, UniProt P0AES4+P0AES6)
Description: Inhibition of Escherichia coli DNA gyrase A2B2 using relaxed pNO1 as substrate

Klebsiella pneumoniae [20] = assay: Antibacterial activity against Klebsiella pneumoniae 1161486 harboring GyrA S83I mutant after 20 to 22 hrs; assay type: functional
Klebsiella pneumoniae [21] = assay: Antibacterial activity against wild type Klebsiella pneumoniae 1161486 after 20 to 22 hrs; assay type: functional
Staphylococcus aureus [22] = assay: Antibacterial activity against Staphylococcus aureus RN4220 harboring ParC S80F/GyrA S84L double mutant after 20 to 22 hrs; assay type: functional
Staphylococcus aureus [23] = assay: Antibacterial activity against Staphylococcus aureus RN4220 harboring GyrA D83N/ParC D79N double mutant after 20 to 22 hrs; assay type: functional
Klebsiella pneumoniae [24] = assay: Antibacterial activity against Klebsiella pneumoniae 1161486 harboring GyrA S83F/D87V/ParC S80I triple mutant after 20 to 22 hrs; assay type: functional
Klebsiella pneumoniae [25] = assay: Antibacterial activity against Klebsiella pneumoniae 1161486 harboring GyrA S83I/ParC S80I double mutant after 20 to 22 hrs; assay type: functional
Staphylococcus aureus [26] = assay: Antibacterial activity against Staphylococcus aureus RN4220 harboring GyrA D83N mutant after 20 to 22 hrs; assay type: functional
Staphylococcus aureus [27] = assay: Antibacterial activity against wild type Staphylococcus aureus RN4220 after 20 to 22 hrs; assay type: functional
Staphylococcus aureus [28] = assay: Antibacterial activity against Staphylococcus aureus RN4220 harboring ParC S80F mutant after 20 to 22 hrs; assay type: functional
Staphylococcus aureus [29] = assay: Antibacterial activity against Staphylococcus aureus RN4220 harboring GyrB D437N mutant after 20 to 22 hrs; assay type: functional
Staphylococcus aureus [30] = assay: Antibacterial activity against methicillin-resistant Staphylococcus aureus ATCC 33592 after 20 to 22 hrs in presence of 50% mouse serum; assay type: functional, organism-based
Staphylococcus aureus [31] = assay: Antibacterial activity against methicillin-resistant Staphylococcus aureus ATCC 33592 after 20 to 22 hrs in presence of 50% calf fetal serum; assay type: functional, organism-based
[32] = Drug metabolism in mouse liver microsomes at 5 uM after 20 mins in presence of NADPH; assay type: ADME, microsome; conditions: read-out: Drug metabolism
[33] = Metabolic stability in rat plasma at 1 uM after 4 hrs; assay type: ADME, cell-free; conditions: read-out: Stability
[34] = Drug metabolism in rat liver microsomes at 5 uM after 20 mins in presence of NADPH; assay type: ADME, microsome; conditions: read-out: Drug metabolism
[35] = Metabolic stability in mouse plasma at 1 uM after 4 hrs; assay type: ADME, cell-free; conditions: read-out: Stability
L5178Y [36] = assay: Genotoxicity in mouse L5178Y cells after 3 hrs in presence of S9 fraction by micronucleus test; assay type: toxicity, cell-based; conditions: s9, 3 h
L5178Y [37] = assay: Genotoxicity in mouse L5178Y cells after 23 hrs in absence of S9 fraction by micronucleus test; assay type: toxicity, cell-based
[38] = Drug metabolism in human liver microsomes at 5 uM after 20 mins in presence of NADPH; assay type: ADME, microsome; conditions: read-out: Drug metabolism

Row | Structure (SMILES) | MIC (Pseudomonas aeruginosa [1]) | MIC (Escherichia coli [2]) | MIC (Pseudomonas aeruginosa [3]) | MIC (Escherichia coli [4]) | MIC (Escherichia coli [5]) | MIC (Escherichia coli [6]) | MIC (Staphylococcus aureus [7]) | MIC (Escherichia coli [8]) | MIC (Escherichia coli [9]) | further results
1 | O=c1c2nccn2c2cc(F)c(-c3cccnc3)cc2n1C1CC1 | 4 µg/mL (≈ 12.5 µM) | < 0.125 µg/mL | > 64 µg/mL | 16 µg/mL (≈ 49.9 µM) | 8 µg/mL (≈ 25 µM) | 32 µg/mL (≈ 99.9 µM) | 64 µg/mL (≈ 200 µM) |  |  | 
2 | Cn1c(=O)c2nccn2c2/c(=C/c3ccncc3)c3ccccc3c21 | > 64 µg/mL | < 0.125 µg/mL | > 64 µg/mL | > 64 µg/mL | > 64 µg/mL | > 64 µg/mL | > 64 µg/mL | 0.25 µg/mL (≈ 0.766 µM) | 0.016 µg/mL (≈ 0.049 µM) | 
3 | CC(=O)Nc1ccc(/C=c2\c3ccccc3c3c2n2ccnc2c(=O)n3C)cc1 | > 64 µg/mL | < 0.125 µg/mL | > 64 µg/mL | > 64 µg/mL | > 64 µg/mL | > 64 µg/mL | 0.25 µg/mL (≈ 0.654 µM) | 2 µg/mL (≈ 5.23 µM) | 0.063 µg/mL (≈ 0.165 µM) | CC50 at 40 h [10]: 8.4 µM; Ratio (Staphylococcus aureus [11]): >32; Stability [12]: Unstable; inhibition at 10 µM (hERG (KCNH2)): > 50%; degraded at 1 h [13]: > 50%; Ratio (Staphylococcus aureus [14]): >32; Stability [15]: Stable; solubility [16]: Insoluble; permeability [17]: Impermeable; degraded at 1 h [18]: > 50%; Stability [19]: Unstable
4 | O=c1c2cncn2c2cc(F)c(-c3ccncc3)cc2n1C1CC1 | 32 µg/mL (≈ 99.9 µM) | 0.25 µg/mL (≈ 0.78 µM) | > 64 µg/mL | 64 µg/mL (≈ 200 µM) | 64 µg/mL (≈ 200 µM) | > 64 µg/mL | 64 µg/mL (≈ 200 µM) |  |  | 
5 | O=c1c2ncnn2c2cc(F)c(-c3ccncc3)cc2n1C1CC1 | 32 µg/mL (≈ 99.6 µM) | < 0.125 µg/mL | > 64 µg/mL | 32 µg/mL (≈ 99.6 µM) | 32 µg/mL (≈ 99.6 µM) | > 64 µg/mL | 16 µg/mL (≈ 49.8 µM) |  |  | 
6 | Cn1cc(-c2ccc(NC(=O)Cc3ccc(Cl)cc3)cc2)n2ccnc2c1=O | > 32 µg/mL | 1 µg/mL (≈ 2.55 µM) | > 32 µg/mL | > 32 µg/mL | 32 µg/mL (≈ 81.5 µM) | > 32 µg/mL | > 32 µg/mL | 4 µg/mL (≈ 10.2 µM) | 0.125 µg/mL (≈ 0.318 µM) | pIC50 (DNA gyrase): 5.20
7 | O=c1c2nccn2c2cc(F)c(-c3ccccn3)cc2n1C1CC1 | > 64 µg/mL | 4 µg/mL (≈ 12.5 µM) | > 64 µg/mL | > 64 µg/mL | > 64 µg/mL | > 64 µg/mL | > 64 µg/mL |  |  | 
8 | N[C@H]1CCN(c2cc3c(cc2F)c(=O)n(N)c(=O)n3C2CC2)C1 | < 0.125 µg/mL | < 0.125 µg/mL | 32 µg/mL (≈ 100 µM) | 1 µg/mL (≈ 3.13 µM) | 0.5 µg/mL (≈ 1.57 µM) | 1 µg/mL (≈ 3.13 µM) | 2 µg/mL (≈ 6.26 µM) |  |  | 
9 | O=C(O)c1cn(C2CC2)c2cc(N3CCNCC3)c(F)cc2c1=O [CIPROFLOXACIN] | < 0.125 µg/mL | < 0.125 µg/mL |  | < 0.125 µg/mL | < 0.125 µg/mL |  |  |  |  | MIC (Klebsiella pneumoniae [20]): 1 µg/mL (≈ 3.02 µM); MIC (Klebsiella pneumoniae [21]): < 0.063 µg/mL; MIC (Staphylococcus aureus [22]): 64 µg/mL (≈ 193 µM); MIC (Staphylococcus aureus [23]): 1 µg/mL (≈ 3.02 µM); MIC (Klebsiella pneumoniae [24]): 8 µg/mL (≈ 24.1 µM); MIC (Klebsiella pneumoniae [25]): 8 µg/mL (≈ 24.1 µM); MIC (Staphylococcus aureus [26]): 0.25 µg/mL (≈ 0.754 µM); MIC (Staphylococcus aureus [27]): 0.25 µg/mL (≈ 0.754 µM); MIC (Staphylococcus aureus [28]): 1 to 2 µg/mL (≈ 3.02 to 6.04 µM); MIC (Staphylococcus aureus [29]): 0.25 µg/mL (≈ 0.754 µM)
10 | N[C@H]1CCN(c2cc3c(cc2F)c2nc[nH]c2c(=O)n3C2CC2)C1 | 0.5 µg/mL (≈ 1.53 µM) | 0.5 µg/mL (≈ 1.53 µM) | 64 µg/mL (≈ 196 µM) | 16 µg/mL (≈ 48.9 µM) | 16 µg/mL (≈ 48.9 µM) | 64 µg/mL (≈ 196 µM) | 16 µg/mL (≈ 48.9 µM) |  |  | Activity (Staphylococcus aureus [30]): Active; Activity (Staphylococcus aureus [31]): Active
11 | CNc1cc(=O)n(C)c2c1/C(=C/c1ccncc1)c1ccccc1-2 |  |  |  |  |  |  |  | 2 µg/mL (≈ 6.34 µM) | 1 µg/mL (≈ 3.17 µM) | 
12 | N[C@H]1CCN(c2cc3c(cc2F)n2cncc2c(=O)n3C2CC2)C1 | 1 µg/mL (≈ 3.05 µM) | 1 µg/mL (≈ 3.05 µM) | > 64 µg/mL | 16 µg/mL (≈ 48.9 µM) | 16 µg/mL (≈ 48.9 µM) | 32 µg/mL (≈ 97.8 µM) | 16 µg/mL (≈ 48.9 µM) |  |  | Activity (Staphylococcus aureus [30]): Active; Activity (Staphylococcus aureus [31]): Active
13 | O=c1c2nccn2c2cc(F)c(-c3ccncc3)cc2n1C1CC1 | 8 µg/mL (≈ 25 µM) | < 0.125 µg/mL | > 64 µg/mL | 16 µg/mL (≈ 49.9 µM) |  | 32 µg/mL (≈ 99.9 µM) | 4 µg/mL (≈ 12.5 µM) | 0.5 µg/mL (≈ 1.56 µM) | 0.063 µg/mL (≈ 0.197 µM) | metabolised at 20 min, 5 µM [32]: 81%; remaining at 4 h, 1 µM [33]: 80 to 120%; Activity (Staphylococcus aureus [30]): Active; metabolised at 20 min, 5 µM [34]: 68%; remaining at 4 h, 1 µM [35]: 80 to 120%; Activity (Staphylococcus aureus [31]): Active; Activity (L5178Y [36]): Toxic; Activity (L5178Y [37]): Toxic; metabolised at 20 min, 5 µM [38]: 13%
